Test results taken from PubChem BioAssay (NCI).
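Tested at 5 concentrations; 48 h exposure; 96-well plates; endpoints linearly interpolated, else capped at highest concentration. TGI is the concentration that stops growth completely.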

Tests used:
Assay in all cases: NCI anticancer screen, dose series, 48 h
[1] = test system: 786-0 renal
[2] = test system: A498 renal
[3] = test system: A549 NSCLC
[4] = test system: ACHN renal
[5] = test system: CAKI-1 renal
[6] = test system: CCRF-CEM leukemia
[7] = test system: COLO 205 colon
[8] = test system: DLD-1 colon
[9] = test system: DMS 114 small cell lung
[10] = test system: DMS 273 small cell lung
[11] = test system: EKVX NSCLC
[12] = test system: HCC-2998 colon
[13] = test system: HCT-116 colon
[14] = test system: HL-60(TB) leukemia
[15] = test system: HOP-18 NSCLC
[16] = test system: HOP-92 NSCLC
[17] = test system: HT29 colon
[18] = test system: IGROV1 ovarian
[19] = test system: K-562 leukemia
[20] = test system: KM12 colon
[21] = test system: LXFL 529 NSCLC
[22] = test system: M19-MEL melanoma
[23] = test system: MALME-3M melanoma
[24] = test system: MOLT-4 leukemia
[25] = test system: NCI-H226 lung
[26] = test system: NCI-H23 lung
[27] = test system: NCI-H460 lung
[28] = test system: NCI-H522 lung
[29] = test system: OVCAR-3 ovarian
[30] = test system: OVCAR-5 ovarian
[31] = test system: OVCAR-8 ovarian
[32] = test system: RPMI-8226 leukemia
[33] = test system: RXF 393 renal
[34] = test system: SF-268 CNS
[35] = test system: SF-295 CNS
[36] = test system: SF-539 CNS
[37] = test system: SK-MEL-2 melanoma
[38] = test system: SK-MEL-28 melanoma
[39] = test system: SK-MEL-5 melanoma
[40] = test system: SK-OV-3 ovarian
[41] = test system: SN12C renal
[42] = test system: SNB-19 CNS
[43] = test system: SNB-75 CNS
[44] = test system: SNB-78 CNS
[45] = test system: SR leukemia
[46] = test system: SW-620 colon
[47] = test system: TK-10 renal
[48] = test system: U251 CNS
[49] = test system: UACC-257 melanoma
[50] = test system: UACC-62 melanoma
[51] = test system: UO-31 renal
[52] = test system: HCT-15 colon
[53] = test system: HOP-62 NSCLC
[54] = test system: KM20L2 colon
[55] = test system: LOX IMVI melanoma
[56] = test system: M14 melanoma
[57] = test system: OVCAR-4 ovarian
[58] = test system: XF 498 CNS
[59] = test system: BT-549 breast
[60] = test system: DU-145 prostate
[61] = test system: HS 578T breast
[62] = test system: MCF7 breast
[63] = test system: MDA-MB-231 breast
[64] = test system: MDA-MB-435
[65] = test system: MDA-N
[66] = test system: NCI/ADR-RES ovarian
[67] = test system: PC-3 prostate
[68] = test system: T-47D breast

## O=[N+]([O-])c1cc(C2SCc3nc4ccccc4n32)ccc1Cl (stereo unspecified)
[1]
  TGI: > 100 µM
[2]
  TGI: 69.6 µM
[3]
  TGI: > 100 µM
[4]
  TGI: > 100 µM
[5]
  TGI: > 100 µM
[6]
  TGI: 85.9 µM
[7]
  TGI: 46.6 µM
[8]
  TGI: > 100 µM
[9]
  TGI: 54.3 µM
[10]
  TGI: 58 µM
[11]
  TGI: > 100 µM
[12]
  TGI: 34.3 µM
[13]
  TGI: 40.4 µM
[14]
  TGI: 42.4 µM
[15]
  TGI: > 100 µM
[16]
  TGI: 49.3 µM
[17]
  TGI: > 100 µM
[18]
  TGI: > 100 µM
[19]
  TGI: > 100 µM
[20]
  TGI: 31.3 µM
[21]
  TGI: 99.7 µM
[22]
  TGI: 53.9 µM
[23]
  TGI: > 100 µM
[24]
  TGI: > 100 µM
[25]
  TGI: 61.8 µM
[26]
  TGI: 78.1 µM
[27]
  TGI: > 100 µM
[28]
  TGI: 77.1 µM
[29]
  TGI: 67.6 µM
[30]
  TGI: 76.8 µM
[31]
  TGI: > 100 µM
[32]
  TGI: 60.2 µM
[33]
  TGI: 79 µM
[34]
  TGI: 81.1 µM
[35]
  TGI: > 100 µM
[36]
  TGI: 89.5 µM
[37]
  TGI: 50.9 µM
[38]
  TGI: > 100 µM
[39]
  TGI: 28.3 µM
[40]
  TGI: 66.2 µM
[41]
  TGI: 33.8 µM
[42]
  TGI: > 100 µM
[43]
  TGI: > 100 µM
[44]
  TGI: 80.1 µM
[45]
  TGI: > 100 µM
[46]
  TGI: > 100 µM
[47]
  TGI: > 100 µM
[48]
  TGI: > 100 µM
[49]
  TGI: 53.1 µM
[50]
  TGI: 52.6 µM
[51]
  TGI: 58.6 µM

## CC(C)C(Sc1nc(-c2ccccc2)c(-c2ccccc2)[nH]1)C(=O)NN (stereo unspecified)
[1]
  TGI: > 100 µM
[2]
  TGI: > 100 µM
[3]
  TGI: > 100 µM
[4]
  TGI: > 100 µM
[5]
  TGI: > 100 µM
[6]
  TGI: > 100 µM
[7]
  TGI: > 100 µM
[8]
  TGI: > 100 µM
[9]
  TGI: > 100 µM
[10]
  TGI: > 100 µM
[13]
  TGI: > 100 µM
[52]
  TGI: > 100 µM
[14]
  TGI: > 100 µM
[53]
  TGI: > 100 µM
[16]
  TGI: > 100 µM
[17]
  TGI: > 100 µM
[18]
  TGI: > 100 µM
[20]
  TGI: > 100 µM
[54]
  TGI: > 100 µM
[55]
  TGI: > 100 µM
[21]
  TGI: > 100 µM
[56]
  TGI: > 100 µM
[22]
  TGI: > 100 µM
[23]
  TGI: > 100 µM
[24]
  TGI: > 100 µM
[25]
  TGI: > 100 µM
[26]
  TGI: > 100 µM
[27]
  TGI: > 100 µM
[28]
  TGI: > 100 µM
[29]
  TGI: > 100 µM
[57]
  TGI: > 100 µM
[30]
  TGI: > 100 µM
[31]
  TGI: > 100 µM
[32]
  TGI: > 100 µM
[33]
  TGI: > 100 µM
[34]
  TGI: > 100 µM
[35]
  TGI: > 100 µM
[36]
  TGI: > 100 µM
[37]
  TGI: > 100 µM
[38]
  TGI: > 100 µM
[39]
  TGI: > 100 µM
[40]
  TGI: > 100 µM
[41]
  TGI: > 100 µM
[42]
  TGI: > 100 µM
[43]
  TGI: > 100 µM
[44]
  TGI: > 100 µM
[46]
  TGI: > 100 µM
[47]
  TGI: > 100 µM
[48]
  TGI: > 100 µM
[49]
  TGI: > 100 µM
[51]
  TGI: > 100 µM
[58]
  TGI: > 100 µM

## COc1ccc(N2C(=O)C(C)SC2c2cc3cc(Br)ccc3nc2Cl)cc1 (stereo unspecified)
[1]
  TGI: > 100 µM
[2]
  TGI: > 100 µM
[3]
  TGI: > 100 µM
[4]
  TGI: > 100 µM
[59]
  TGI: 99.7 µM
[5]
  TGI: > 100 µM
[6]
  TGI: > 100 µM
[7]
  TGI: > 100 µM
[60]
  TGI: > 100 µM
[11]
  TGI: 98.5 µM
[12]
  TGI: > 100 µM
[13]
  TGI: > 100 µM
[52]
  TGI: > 100 µM
[14]
  TGI: 74.7 µM
[53]
  TGI: > 100 µM
[16]
  TGI: 82.9 µM
[61]
  TGI: > 100 µM
[17]
  TGI: > 100 µM
[18]
  TGI: > 100 µM
[19]
  TGI: > 100 µM
[20]
  TGI: > 100 µM
[55]
  TGI: > 100 µM
[56]
  TGI: > 100 µM
[23]
  TGI: > 100 µM
[62]
  TGI: > 100 µM
[63]
  TGI: > 100 µM
[64]
  TGI: 50.5 µM
[65]
  TGI: > 100 µM
[24]
  TGI: 79.2 µM
[25]
  TGI: > 100 µM
[26]
  TGI: > 100 µM
[27]
  TGI: > 100 µM
[28]
  TGI: 78.6 µM
[66]
  TGI: 85.8 µM
[29]
  TGI: > 100 µM
[57]
  TGI: > 100 µM
[30]
  TGI: > 100 µM
[31]
  TGI: > 100 µM
[67]
  TGI: > 100 µM
[32]
  TGI: > 100 µM
[33]
  TGI: 93.6 µM
[34]
  TGI: > 100 µM
[35]
  TGI: > 100 µM
[36]
  TGI: 55.7 µM
[37]
  TGI: 48.4 µM
[38]
  TGI: > 100 µM
[39]
  TGI: > 100 µM
[40]
  TGI: > 100 µM
[41]
  TGI: > 100 µM
[42]
  TGI: > 100 µM
[43]
  TGI: > 100 µM
[45]
  TGI: 72.3 µM
[46]
  TGI: > 100 µM
[68]
  TGI: > 100 µM
[47]
  TGI: 91.4 µM
[49]
  TGI: > 100 µM
[50]
  TGI: > 100 µM
[51]
  TGI: > 100 µM

## CN(C)CC1CCCC(CN(C)C)C1=NOC(=O)c1ccccc1 (stereo unspecified)
[1]
  TGI: > 100 µM
[2]
  TGI: > 100 µM
[3]
  TGI: > 100 µM
[4]
  TGI: > 100 µM
[6]
  TGI: > 100 µM
[7]
  TGI: > 100 µM
[8]
  TGI: > 100 µM
[9]
  TGI: > 100 µM
[10]
  TGI: > 100 µM
[11]
  TGI: > 100 µM
[12]
  TGI: > 100 µM
[13]
  TGI: > 100 µM
[52]
  TGI: > 100 µM
[14]
  TGI: > 100 µM
[15]
  TGI: > 100 µM
[53]
  TGI: > 100 µM
[16]
  TGI: > 100 µM
[17]
  TGI: > 100 µM
[18]
  TGI: > 100 µM
[19]
  TGI: > 100 µM
[20]
  TGI: > 100 µM
[54]
  TGI: > 100 µM
[55]
  TGI: > 100 µM
[21]
  TGI: > 100 µM
[56]
  TGI: > 100 µM
[22]
  TGI: > 100 µM
[23]
  TGI: > 100 µM
[24]
  TGI: > 100 µM
[25]
  TGI: > 100 µM
[26]
  TGI: > 100 µM
[27]
  TGI: > 100 µM
[28]
  TGI: > 100 µM
[29]
  TGI: > 100 µM
[30]
  TGI: > 100 µM
[31]
  TGI: > 100 µM
[32]
  TGI: > 100 µM
[34]
  TGI: > 100 µM
[35]
  TGI: > 100 µM
[36]
  TGI: > 100 µM
[37]
  TGI: > 100 µM
[38]
  TGI: > 100 µM
[39]
  TGI: > 100 µM
[40]
  TGI: > 100 µM
[41]
  TGI: > 100 µM
[42]
  TGI: > 100 µM
[43]
  TGI: > 100 µM
[44]
  TGI: > 100 µM
[45]
  TGI: > 100 µM
[46]
  TGI: > 100 µM
[47]
  TGI: > 100 µM
[48]
  TGI: > 100 µM
[49]
  TGI: > 100 µM
[50]
  TGI: > 100 µM
[51]
  TGI: > 100 µM
[58]
  TGI: > 100 µM
